Test results from patent US10975116B2, “Methods of treating and preventing gastrointestinal motility disorders using aminosterols” (Enterin, Inc., priority 2013, dated 2021).
“Also recorded” adds a separate entry of the source.

Key:
[1] = tested on: Parkinson's-like syndrome; experiment: Oral squalamine in Parkinson's-like syndrome without GI disorders, single subject; assay type: in vivo, human
From the text: The individual was a person. They were a psychiatrist specializing in addiction. Movement disorder began. Original diagnosis was multiple sclerosis. Presenting symptoms were depression and difficulty in controlling the action of sitting in chair. They would “plop” onto a sit without braking the movement. […] Treatment with L-DOPA caused some correction of the sitting difficulty, leading to the presumptive diagnosis of Parkinson's disease. Therapy continued with increasing doses of Sinemet, followed by addition of ropinirole. Deterioration continued (despite an L-DOPA dose exceeding 10-11 pills/day), ropinirole (5×2 mg and 4×1 mg, daily) and amantadine was added. They were on Wellbutryn for depression. There had been no history of GI disorders, and bowel function was said to be normal.
The individual lived at home with a spouse and 2 children. They had to be driven to work. Walking was unsteady. Their speech was nearly incomprehensible. Face was mask-like. No obvious tremors. Walking was hesitant. Subject had fallen (or tripped) several times previously and used a cane.

[2] = tested on: Opioid induced constipation; experiment: Oral squalamine in opioid (codeine) induced constipation, single subject; assay type: in vivo, human
Description: A normal subject began dosing with 1 tab codeine 30 mg/acetaminophen 300 mg at 8 A on Day 1, and repeated on Day 2 and Day 3. Normal bowel movement frequency was 1 or more stools/day, normally formed. Prior to codeine on Day 1, subject passed a normal stool in the AM. No bowel movements from the start of dosing through the 8 A Day 3 dose. No cramping; some gas. Some sense of fullness on the evening of Day 2.
At 9:15 A subject was administered 200 mg cap of squalamine. […] No nausea. […] A second smaller stool was passed at 12:30. […] The rapid effect on colonic motility seems unlikely to have been a direct effect of squalamine on the colon, but perhaps a downstream consequence of enteric nervous system stimulation. On Day 4, 30 mg codeine. No squalamine dosing. 7 P passed a loose stool of normal volume.

Substance: squalamine
- Observations ([1]; Day 1, 100 mg cap): No obvious GI response. Continued
- Observations ([1]; Day 21, 100 mg every other day, then began 200 mg every other day): articulation had become noticeably better; also recorded: improving and their energy level was increasing
- Observations ([1]; Month 3, subject ran out of squalamine 2 weeks prior (cessation)): worst constipation they had ever remembered.”; also recorded: that he “was not feeling as good”
- Observations ([1]; Month 5, 100 mg every other day raised to 200 mg every day at month 5.5): mg every day at month 5.5. No GI; also recorded: colleagues noted improvement. Took; also recorded: several falls which they attributed
- Observations ([1]; Month 6, 200 mg every day): Individual could compensate being pulled; also recorded: told me that they felt their balance had improved; also recorded: Still had difficulty initiating; also recorded: No tremor; also recorded: Voice was of low; also recorded: volume. Face was still mask-like; also recorded: Once moving subject walked without; also recorded: Medication dosing had not changed
- bowel response ([2]; 200 mg cap at 9:15 A on Day 3 of codeine 30 mg/acetaminophen 300 mg, no stool since start, stool at 11:15 A): passed a large soft, well formed stool with normal urgency; also recorded: A sense of bowel relief was appreciated
- nausea and rectal fluid ([2]; 200 mg cap at 9:15 A on Day 3 of codeine dosing): No nausea; also recorded: No clear rectal fluid
